Tests used:
Format in all cases: cell-based
[1] = tested on: Human d7 Cultured Dendritic Cells; experiment: Flow cytometry phenotype analysis of human d7 cultured dendritic cells after 24 h stimulation; conditions: LPS 10 ng/ml, others 100 ng/ml; for HLA-DR MFI: 7 day DCs, 24 h stimulation
[2] = tested on: cultured human dendritic cells (DC); experiment: Flow cytometry of cell surface activation markers on human DCs restimulated 72 hours with AGPs (titration)
Protocol: Dendritic cells are developed in-vitro from human CD14+ monocyte precursors using standard 7 day GM-CSF ([…]) and IL-4 ([…]) culture conditions. The cultured DCs are >90% CD11c^+/HLA-DR^+/lineage^− by flow cytometry analysis. FIGS. 15-18 show the results of flow cytometry analysis of gated CD11c^+/HLA-DR^+/lineage^− human DCs after they were restimulated in-vitro for 72 hours in the presence of selected AGPs at a titration range of 0.1 μg/ml-2 μg/ml. Data is expressed as the percent of gated DCs which are positive for the indicated marker (y-axis) versus the logo10 of the AGP or lipid A concentration. R595 LPS was used in each induction at 10 ng/ml as a positive control—the negative control was unstimulated human dendritic cells cultured for 72 hours in the same medium conditions used for AGP stimulation. Data was analyzed using non-linear regression analysis—all data was modeled using a 3rd order polynomial to determiine the best curve fit.

[3] = tested on: murine bone marrow derived DCs + D011.10 T cells; experiment: APC function of ova-pulsed, lipid A potentiated murine DCs co-cultured with D011.10 T cells (cytokine ELISA)
Excerpt: These antigen pulsed, lipid A potentiated cells were then washed thoroughly and titered against ova-specific T cell effector cells in vitro at an APC: T cell ratio titration of 1:1 out to as high as 1:512. The effector T cells in this in vitro assay were the antigen naive, but antigen (ova) specific, MHC restricted I-A^d splenic T cells from transgenic D011.10 mice.
D011.10 TCR-transgenic mice were used in these experiments as donors of antigen specific naive T cells. In their germline DNA these mice contain rearranged TCR-Vα and -Vβ genes that encode a T cell receptor (TCR) specific for the ovalbumin peptide 323-339 bound to IA^d (Balb/c) Class II MHC molecules. The transgenic ova peptide specific TCR can be detected with the KJ1-26 monoclonal antibody (mAb) that binds only to this particular TCR heterodimer. These cells provide a ready source of “normal” antigen (ova)-specific effector T cells. Effective antigen-mediated APC stimulation of those T cells is generally measured by ELISA quantitation of IL-2 or IFN-γ in the culture supernatants of DC+D011.10 T cells after 24-48 hours of incubation.
In one experiment, murine bone marrow derived DCs (6 day cultures) were pulsed with ova (50 μg/ml-5×10^5 cells/ml) and then potentiated overnight with LPS(R595), MPL® immunostimulant-S, RC-527, RC-529 or RC-544 prior to being cultured together with naive D011.10 effector T cells (FIGS. 1-7). The APC function of these DCs as measured by their ability to stimulate IL-2, IFN-γ IL-12 (p70) and IL-12 (p40) secretion in the DC+D011.10 co-culture systems was analyzed. All of the data shown in FIGS. 1-7 was developed from DCs maintained in lipid A induction cultures for either 15 or 38 hours prior to use in the T cell assay.

[4] = single analysis, one normal donor

CCCCCCCCCCCC(CC(=O)NC(COC1OC(CO)C(OP(=O)(O)O)C(OC(=O)CC(CCCCCCCCCCC)OC(=O)CCCCCCCCC)C1NC(=O)CC(CCCCCCCCCCC)OC(=O)CCCCCCCCC)C(=O)O)OC(=O)CCCCCCCCC (stereo not shown) [RC-527]
CD 1a % positive cells ([1]; Exp. 091698, 24 h): 93.5%
CD 1a MFI ([1]; Exp. 091698, 24 h): 8.71
CD 4 % positive cells ([1]; Exp. 091698, 24 h): 69.5%
CD 4 MFI ([1]; Exp. 091698, 24 h): 2.33
CD 14 % positive cells ([1]; Exp. 091698, 24 h): 4.2%
CD 35 % positive cells ([1]; Exp. 091698, 24 h): 49.4%
CD 35 MFI ([1]; Exp. 091698, 24 h): 2.74
CD 40 MFI ([1]; Exp. 091698, 24 h): 43.0
CD 44 MFI ([1]; Exp. 091698, 24 h): 329
CD 54 MFI ([1]; Exp. 091698, 24 h): 34.9
CD 62 L % positive cells ([1]; Exp. 091698, 24 h): 11.2%
CD 69 % positive cells ([1]; Exp. 091698, 24 h): 16.1%
CD 80 % positive cells ([1]; Exp. 091698, 24 h): 99.5%
CD 80 MFI ([1]; Exp. 091698, 24 h): 8.37
CD 83 % positive cells ([1]; Exp. 091698, 24 h): 97.0%
CD 83 MFI ([1]; Exp. 091698, 24 h): 3.52
CD 86 % positive cells ([1]; Exp. 091698, 24 h): 99.8%
CD 86 MFI ([1]; Exp. 091698, 24 h): 18.1
CD 95 % positive cells ([1]; Exp. 091698, 24 h): 93.6%
CD 95 MFI ([1]; Exp. 091698, 24 h): 1.61
HLA-DR MFI ([1]; Exp. 091698): 74.2
CD 1a % positive cells ([1]; Exp. 092398, 24 h): 84.1%
CD 1a MFI ([1]; Exp. 092398, 24 h): 5.57
CD 4 % positive cells ([1]; Exp. 092398, 24 h): 69.5%
CD 4 MFI ([1]; Exp. 092398, 24 h): 2.66
CD 14 % positive cells ([1]; Exp. 092398, 24 h): 4.3%
CD 35 % positive cells ([1]; Exp. 092398, 24 h): 65.1%
CD 35 MFI ([1]; Exp. 092398, 24 h): 3.02
CD 40 MFI ([1]; Exp. 092398, 24 h): 35.0
CD 54 MFI ([1]; Exp. 092398, 24 h): 42.6
CD 62 L % positive cells ([1]; Exp. 092398, 24 h): 13.6%
CD 69 % positive cells ([1]; Exp. 092398, 24 h): 10.5%
CD 80 % positive cells ([1]; Exp. 092398, 24 h): 99.4%
CD 80 MFI ([1]; Exp. 092398, 24 h): 12.7
CD 83 % positive cells ([1]; Exp. 092398, 24 h): 97.6%
CD 83 MFI ([1]; Exp. 092398, 24 h): 3.57
CD 86 % positive cells ([1]; Exp. 092398, 24 h): 99.9%
CD 86 MFI ([1]; Exp. 092398, 24 h): 28.0
CD 95 % positive cells ([1]; Exp. 092398, 24 h): 94.8%
CD 95 MFI ([1]; Exp. 092398, 24 h): 1.78
αC5aR + GAR Alexa % positive cells ([1]; Exp. 092398, 24 h): 42.3%
CD 44 MFI ([1]; Exp. 092398, 24 h, values printed with a trailing +): 499+
GAR-Alexa % positive cells ([1]; Exp. 092398, 24 h, secondary reagent staining): 2.9%
HLA-DR MFI ([1]; Exp. 092398): 107.8
CCR 6 % positive cells ([1]; Exp. 093098, 24 h): 4.0%
CD 1a % positive cells ([1]; Exp. 093098, 24 h): 80.3%
CD 1a MFI ([1]; Exp. 093098, 24 h): 6.83
CD 3 % positive cells ([1]; Exp. 093098, 24 h): 28.5%
CD 3 MFI ([1]; Exp. 093098, 24 h): 3.89
CD 4 % positive cells ([1]; Exp. 093098, 24 h): 75.2%
CD 4 MFI ([1]; Exp. 093098, 24 h): 3.06
CD 11c % positive cells ([1]; Exp. 093098, 24 h): 92.6%
CD 11c MFI ([1]; Exp. 093098, 24 h): 6.77
CD 14 % positive cells ([1]; Exp. 093098, 24 h): 3.3%
CD 40 MFI ([1]; Exp. 093098, 24 h): 34.9
CD 54 MFI ([1]; Exp. 093098, 24 h): 47.0
CD 62 L % positive cells ([1]; Exp. 093098, 24 h): 3.0%
CD 80 % positive cells ([1]; Exp. 093098, 24 h): 98.9%
CD 80 MFI ([1]; Exp. 093098, 24 h): 13.1
CD 83 % positive cells ([1]; Exp. 093098, 24 h): 92.6%
CD 83 MFI ([1]; Exp. 093098, 24 h): 3.63
CD 86 % positive cells ([1]; Exp. 093098, 24 h): 99.5%
CD 86 MFI ([1]; Exp. 093098, 24 h): 27.4
CD 123 % positive cells ([1]; Exp. 093098, 24 h): 52.9%
CD 123 MFI ([1]; Exp. 093098, 24 h): 1.99
αC5aR + Alexa 488 % positive cells ([1]; Exp. 093098, 24 h): 42.7%
αC5aR + Alexa 488 MFI ([1]; Exp. 093098, 24 h): 8.17
HLA-DR MFI ([1]; Exp. 093098): 172.9
cell surface expression of CD80 (in words) ([2]; 72 hours, titration 0.1-2 μg/ml, FIG. 15): highest level of increased cell surface expression
DC expression of CD83 (in words) ([2]; 72 hours, titration 0.1-2 μg/ml, FIG. 16): highest DC expression levels
cell surface expression of CD40 (in words) ([2]; 72 hours, titration 0.1-2 μg/ml, FIG. 17): highest elevated cell surface expression
concentration at which the effect is usually already maximized [2, 4]: 100 ng/mL
overall induction of DC maturation and co-stimulatory molecule expression (in words) [2, 4]: strongest induction of DC maturation and co-stimulatory molecule expression of all the AGPs tested
IFN-γ release by D011.10 T cells (in words) ([3]; DCs precultured 38 hours, FIG. 3): generally more potent
IFN-γ secretion by D011.10 cells (in words) ([3]; DCs prestimulated 15 hours, FIG. 2): high levels of IFN-γ release
IL-2 secretion (in words) ([3]; DCs prestimulated 15 hours, all T cell:APC ratios, FIG. 1): comparable in their ability to stimulate IL-2 secretion
IFN-γ secretion at T cell:APC ratio 32:1 (in words) ([3]; FIG. 4): comparable to that observed with LPS
IL-12 (p70) in DC+D011.10 co-cultures (in words) ([3]; FIG. 5): most potent
release of IL-12 (p40) homodimer in DC+D011.10 co-cultures (in words) ([3]; FIG. 7): most potent effect

Source: patent publication US20040033213A1, “Methods of modulating dendritic cells using adjuvants” (Corixa Corporation, priority 2002, published 2004)
